The target in assay [1] is T1, Gal4-RORγ-LBD (Homo sapiens, UniProt P51449).
T1 construct: expressed in transfected cells; host or cells: HEK-293 cells (pcDNA3.1neo plasmid)
T1 sequence (P51449 269-508 limits assumed): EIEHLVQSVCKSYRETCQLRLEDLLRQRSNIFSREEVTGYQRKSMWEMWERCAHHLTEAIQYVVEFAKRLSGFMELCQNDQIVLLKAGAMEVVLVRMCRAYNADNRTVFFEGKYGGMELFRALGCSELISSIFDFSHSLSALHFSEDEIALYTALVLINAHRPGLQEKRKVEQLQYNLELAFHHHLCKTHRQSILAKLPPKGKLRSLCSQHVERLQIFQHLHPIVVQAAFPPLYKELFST
Description: Gal4-RORγ Luciferase Reporter Assay in HEK-293T Cells. It counts as cell-based. The following applies: HEK-293 cells. The gist of the method:
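HEK-293 cells were transiently co-transfected with Gal4-RORγ-LBD and pGL4.31 Gal4-luciferase, with ursolic acid added at 2 μM final. Compounds were incubated overnight at 37° C. in 0.2% DMSO and luminescence read with One-Glo. Max Response is the upper plateau of a 4-parameter logistic fit, with signal lacking ursolic acid or compound set to 100.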

Assay [2] addresses T2, RORγ-LBD (Homo sapiens, UniProt P51449).
T2 construct: made in house; host or cells: SF9 cells (baculovirus)
T2 sequence (P51449 269-508 limits assumed): T1 sequence (P51449 269-508 limits assumed)
The assay can be described thus: RORγ-Ligand Binding Domain (LBD) TR-FRET Assay.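 As to TR-FRET Assay Max Response: 665/615 nm ratio relative to signal without ursolic acid or compound set at 100.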 It counts as biochemical. The gist of the method:
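His-tagged RORγ-LBD from SF9 baculovirus lysate, ~3 nM final, in 50 mM Tris pH 7.0, 50 mM KCl, 1 mM EDTA, 0.1 mM DTT, 0.01% BSA. Biotinylated SRC1 LXXLL peptide at 200 nM final with 2 μM ursolic acid; TR-FRET read-out, 1% DMSO final.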

Where [3] appears, read: luciferase reporter, with 2 μM ursolic acid.

As for `COc1cc(-c2ccc3c(c2)N(S(=O)(=O)c2cccc(C(F)(F)F)c2)C[C@H](CCC(=O)O)O3)ccn1` [Compound 4D, (S)-3-(6-(2-methoxypyridin-4-yl)-4-((3-(trifluoromethyl)-phenyl)sulfonyl)-3,4-dihydro-2H-benzo[b][1,4]oxazin-2-yl)propanoic acid], in assay [1] (setting [3]), the 50% effective concentration (EC50) was 0.5 to 5 µM and the “Gal4-RORγ Assay Max Response” value is given as “* (The symbol “*” indicates a value in the range of 25 to 90)”. Moreover, in assay [2], the EC50 was less than 0.5 µM and the “TR-FRET Assay Max Response” value is “*** (The symbol “***” indicates a value in the range of greater than 150 to 200)”.
The corresponding values for `N#CCC(=O)NC[C@H]1CN(S(=O)(=O)c2cccc(C(F)(F)F)c2)c2cc(-c3cccc(C(F)(F)F)n3)ccc2O1` [Compound 30BH, (S)-2-cyano-N-((4-((3-(trifluoromethyl)phenyl)-sulfonyl)-6-(6-(trifluoro-methyl)pyridin-2-yl)-3,4-dihydro-2H-benzo[b][1,4]-oxazin-2-yl)methyl)acetamide] are 0.5 to 5 µM, “** (The symbol “**” indicates a value in the range of greater than 90 to 150)”, less than 0.5 µM and “*** (The symbol “***” indicates a value in the range of greater than 150 to 200)”.
Turning to `O=C(O)[C@@]1(C[C@H]2CN(S(=O)(=O)c3cccc(C(F)(F)F)c3)c3cc(-c4cc(F)ccc4F)ccc3O2)CCNC1=O` [Compound 77B, (R)-3-(((S)-6-(2,5-difluorophenyl)-4-((3-(trifluoromethyl)phenyl)-sulfonyl)-3,4-dihydro-2H-benzo[b][1,4]oxazin-2-yl)methyl)-2-oxopyrrolidine-3-carboxylic acid], in assay [1] (2 μM ursolic acid), the half-maximal effective concentration (EC50) was less than 0.5 µM and the “Gal4-RORγ Assay Max Response” value is recorded as “** (The symbol “**” indicates a value in the range of greater than 90 to 150)”. Also, in assay [2], the EC50 is less than 0.5 µM and the “TR-FRET Assay Max Response” value is “*** (The symbol “***” indicates a value in the range of greater than 150 to 200)”.
Consider `Cc1ncccc1-c1ccc2c(c1)N(S(=O)(=O)c1cccc(C(F)(F)F)c1)C[C@H](CCC(=O)O)O2` [Compound 4AE, (S)-3-(6-(2-methylpyridin-3-yl)-4-((3-(trifluoromethyl)-phenyl)sulfonyl)-3,4-dihydro-2H-benzo[b][1,4]oxazin-2-yl)propanoic acid], for which, in assay [1] (setting [3]), the EC50 was in the range of 0.5 to 5 µM and the “Gal4-RORγ Assay Max Response” value is “** (The symbol “**” indicates a value in the range of greater than 90 to 150)”. In assay [2], the EC50 was less than 0.5 µM and the “TR-FRET Assay Max Response” value is “**** (The symbol “****” indicates a value greater than 200)”.
`CC(C)(C[C@H]1CN(S(=O)(=O)c2cccc(C(F)(F)F)c2)c2cc(-c3cccc(Cl)c3)ccc2O1)C(=O)O` [Compound 32W, (S)-3-(6-(3-chlorophenyl)-4-((3-(trifluoromethyl)phenyl)sulfonyl)-3,4-dihydro-2H-benzo[b][1,4]-oxazin-2-yl)-2,2-dimethyl-propanoic acid]: in assay [1] (2 μM ursolic acid), the EC50 was less than 0.5 µM and the “Gal4-RORγ Assay Max Response” value is listed as “** (The symbol “**” indicates a value in the range of greater than 90 to 150)”. Also, in assay [2], the EC50 is less than 0.5 µM and the “TR-FRET Assay Max Response” value is “*** (The symbol “***” indicates a value in the range of greater than 150 to 200)”.
Consider `O=C(NC[C@H]1CN(S(=O)(=O)c2cccc(C(F)(F)F)c2)c2cc(-c3cc(F)ccc3F)ccc2O1)c1cc[nH]n1` [Compound 30AD, (S)-N-((6-(2,5-difluorophenyl)-4-((3-(trifluoromethyl)phenyl)-sulfonyl)-3,4-dihydro-2H-benzo[b][1,4]oxazin-2-yl)methyl)-1H-pyrazole-3-carboxamide], for which, in assay [1] (setting [3]), the EC50 was less than 0.5 µM and the “Gal4-RORγ Assay Max Response” value is “* (The symbol “*” indicates a value in the range of 25 to 90)”. In assay [2], the EC50 is less than 0.5 µM and the “TR-FRET Assay Max Response” value is “**** (The symbol “****” indicates a value greater than 200)”.
As for `CC(=O)N[C@H](C)C(=O)NC[C@H]1CN(S(=O)(=O)c2cccc(C(F)(F)F)c2)c2cc(-c3cccc(F)c3Cl)ccc2O1` [Compound 30CJ, (R)-2-acetamido-N-(((S)-6-(2-chloro-3-fluorophenyl)-4-((3-(trifluoromethyl)phenyl)-sulfonyl)-3,4-dihydro-2H-benzo[b][1,4]oxazin-2-yl)methyl)propanamide], in assay [1] (2 μM ursolic acid), the EC50 was in the range of 0.5 to 5 µM and the “Gal4-RORγ Assay Max Response” value is given as “* (The symbol “*” indicates a value in the range of 25 to 90)”. In addition, in assay [2], the concentration giving a half-maximal response (EC50) was less than 0.5 µM and the “TR-FRET Assay Max Response” value was “** (The symbol “**” indicates a value in the range of greater than 90 to 150)”.
In the case of `Cc1c(F)cc(-c2ccc3c(c2)N(S(=O)(=O)c2cccc(C(F)(F)F)c2)C[C@H](CC(C)C(=O)O)O3)c(Cl)c1F` (stereo partly drawn) [Compound 46A, 3-((S)-6-(2-chloro-3,5-difluoro-4-methylphenyl)-4-((3-(trifluoro-methyl)phenyl)sulfonyl)-3,4-dihydro-2H-benzo[b][1,4]oxazin-2-yl)-2-methylpropanoic acid], in assay [1] (setting [3]), the 50% effective concentration (EC50) lay within 0.5 to 5 µM and the “Gal4-RORγ Assay Max Response” value is reported as “** (The symbol “**” indicates a value in the range of greater than 90 to 150)”. Also, in assay [2], the EC50 was less than 0.5 µM and the “TR-FRET Assay Max Response” value is “*** (The symbol “***” indicates a value in the range of greater than 150 to 200)”.
In turn, `CC(C)Cn1cc(-c2ccc3c(c2)N(S(=O)(=O)c2cccc(C(F)(F)F)c2)C[C@H](CCC(=O)O)O3)cn1` [Compound 2BH, (S)-3-(6-(1-isobutyl-1H-pyrazol-4-yl)-4-((3-(trifluoromethyl)-phenyl)sulfonyl)-3,4-dihydro-2H-benzo[b][1,4]oxazin-2-yl)propanoic acid] yielded an EC50 in assay [1] (setting [3]) greater than 10 µM. In assay [2], the EC50 was in the range of 0.5 to 5 µM and the “TR-FRET Assay Max Response” value is reported as “** (The symbol “**” indicates a value in the range of greater than 90 to 150)”.
As to `Cc1ccc(Cl)cc1-c1ccc2c(c1)N(S(=O)(=O)c1cccc(C(F)(F)F)c1)C[C@H](CC(C)(C)C(=O)O)O2` [Compound 32AR, (S)-3-(6-(5-chloro-2-methyl-phenyl)-4-((3-(trifluoromethyl)-phenyl)sulfonyl)-3,4-dihydro-2H-benzo[b][1,4]oxazin-2-yl)-2,2-dimethylpropanoic acid], in assay [1] (2 μM ursolic acid), the EC50 was less than 0.5 µM and the “Gal4-RORγ Assay Max Response” value was “** (The symbol “**” indicates a value in the range of greater than 90 to 150)”. Further, in assay [2], the EC50 is less than 0.5 µM and the “TR-FRET Assay Max Response” value is “** (The symbol “**” indicates a value in the range of greater than 90 to 150)”.
For `COc1cc(S(=O)(=O)N2C[C@H](CNS(=O)(=O)N(C)C)Oc3ccc(-c4cc(F)ccc4F)cc32)ccc1F` [Compound 45C, ([[(2S)-6-(2,5-difluorophenyl)-4-[[4-fluoro-3-methoxy-benzene]-sulfonyl]-3,4-dihydro-2H-1,4-benzoxazin-2-yl]methyl]sulfamoyl)-(dimethyl)amine], in assay [1] (setting [3]), the EC50 was less than 0.5 µM and the “Gal4-RORγ Assay Max Response” value is recorded as “* (The symbol “*” indicates a value in the range of 25 to 90)”. In assay [2], the EC50 is less than 0.5 µM and the “TR-FRET Assay Max Response” value was “*** (The symbol “***” indicates a value in the range of greater than 150 to 200)”.
On to `CC[C@H](C[C@H]1CN(S(=O)(=O)c2cccc(C(F)(F)F)c2)c2cc(-c3cc(F)cc(F)c3Cl)ccc2O1)C(=O)O` [Compound 46F, (R)-2-(((S)-6-(2-chloro-3,5-difluorophenyl)-4-((3-(trifluoro-methyl)phenyl)sulfonyl)-3,4-dihydro-2H-benzo[b][1,4]oxazin-2-yl)methyl)butanoic acid], for which, in assay [1] (2 μM ursolic acid), the EC50 fell in the range of 0.5 to 5 µM and the “Gal4-RORγ Assay Max Response” value is given as “* (The symbol “*” indicates a value in the range of 25 to 90)”. Further, in assay [2], the EC50 is less than 0.5 µM and the “TR-FRET Assay Max Response” value was “*** (The symbol “***” indicates a value in the range of greater than 150 to 200)”.
Take `COc1cc(S(=O)(=O)N2C[C@H](CCc3n[nH]c(=O)o3)Oc3ccc(-c4cccc(C(F)(F)F)n4)cc32)ccc1F` [Compound 28K, (S)-5-(2-(4-((4-fluoro-3-methoxyphenyl)sulfonyl)-6-(6-(trifluoromethyl)pyridin-2-yl)-3,4-dihydro-2H-benzo[b][1,4]oxazin-2-yl)ethyl)-1,3,4-oxadiazol-2(3H)-one]: in assay [1] (setting [3]), the EC50 is less than 0.5 µM and the “Gal4-RORγ Assay Max Response” value is given as “** (The symbol “**” indicates a value in the range of greater than 90 to 150)”. In assay [2], the EC50 was less than 0.5 µM and the “TR-FRET Assay Max Response” value is reported as “**** (The symbol “****” indicates a value greater than 200)”.
Take `Cn1cc(C(=O)NC[C@H]2CN(S(=O)(=O)c3cccc(C(F)(F)F)c3)c3cc(-c4cc(F)ccc4F)ccc3O2)cn1` [Compound 30AH, (S)-N-((6-(2,5-difluorophenyl)-4-((3-(trifluoromethyl)phenyl)-sulfonyl)-3,4-dihydro-2H-benzo[b][1,4]oxazin-2-yl)methyl)-1-methyl-1H-pyrazole-4-carboxamide]: in assay [1] (setting [3]), the EC50 is less than 0.5 µM and the “Gal4-RORγ Assay Max Response” value was “** (The symbol “**” indicates a value in the range of greater than 90 to 150)”. Further, in assay [2], the EC50 is less than 0.5 µM and the “TR-FRET Assay Max Response” value is reported as “*** (The symbol “***” indicates a value in the range of greater than 150 to 200)”.

The record behind these values is patent US10611740B2, “Aryl dihydro-2H-benzo[b][1,4]oxazine sulfonamide and related compounds for use as agonists of RORγ and the treatment of disease” (Lycera Corporation, priority 2015, dated 2020).
